# Reference: paper PMC9376891 (Nature Communications, 2022)
# Biological target: Rae1_31-368-Nup98_157-213 heterodimer (Rae1-Nup98 complex) (Homo sapiens, UniProt P52948+P78406)
# Assay: biochemical
# Type: binding
# Rae1_31-368-Nup98_157-213 heterodimer (Rae1-Nup98 complex), sequence (P78406 31-368 limits assumed): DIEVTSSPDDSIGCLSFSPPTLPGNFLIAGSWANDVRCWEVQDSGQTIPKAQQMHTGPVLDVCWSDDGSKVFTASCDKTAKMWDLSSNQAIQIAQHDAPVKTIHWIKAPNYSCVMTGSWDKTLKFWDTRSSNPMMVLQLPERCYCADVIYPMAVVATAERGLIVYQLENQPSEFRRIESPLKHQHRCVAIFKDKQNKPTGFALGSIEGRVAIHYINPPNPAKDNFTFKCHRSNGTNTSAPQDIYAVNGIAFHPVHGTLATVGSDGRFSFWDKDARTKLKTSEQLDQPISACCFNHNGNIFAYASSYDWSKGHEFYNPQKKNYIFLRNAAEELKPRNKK
# Rae1_31-368-Nup98_157-213 heterodimer (Rae1-Nup98 complex), sequence (P52948 157-213 partner limits assumed): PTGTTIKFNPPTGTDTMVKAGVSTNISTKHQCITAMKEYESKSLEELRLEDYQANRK
smiles,measurement,value
CSCC[C@H](NC(=O)[C@H](CCC(=O)O)NC(=O)[C@@H](N)CC(=O)O)C(=O)N[C@@H](CC(=O)O)C(=O)N[C@H](C(=O)N[C@@H](Cc1c[nH]cn1)C(=O)N[C@@H](CC(=O)O)C(=O)N1CCC[C@H]1C(=O)N[C@@H](CC(N)=O)C(=O)N[C@@H](CCC(N)=O)C(=O)N[C@@H](CC(C)C)C(=O)N[C@@H](CCCNC(=N)N)C(=O)N[C@@H](Cc1ccc(O)cc1)C(=O)O)[C@@H](C)O [VSV M NTE],Kd,117 µM
